Test system: Plasmodium berghei
Test: Luciferase/luciferin-expressing antifolate-resistant parasites were used to infect a culture of HepG2 cells that were pre-incubated with compounds. Infected hepatocytes emit light due to the luciferase reaction. Assay results are presented as the percent inhibition of light emission compared to control. […]
Format: functional
Conditions: sporozoite; for IC90: read-out: LUCIFERASE INFECTION ASSAY - IC90
[1] = read-out: LUCIFERASE INFECTION ASSAY - IC50

## COc1ccc([N+](=O)[O-])cc1NC(=O)COC(=O)CSCc1c(C)noc1C
[1]
  IC50: > 10 µM
  IC90: > 10 µM

## Cc1ccc2nc(NC(=O)c3ccc(F)c(F)c3)c(C(=O)NC3CCCC3)n2c1
FFLUC_HILL_SLOPE 15.6, FFLUC_R_SQUARED 0.751, HEPG2TOX_HILL_SLOPE 0.983, HEPG2TOX_R_SQUARED 0.896, PBLUC_HILL_SLOPE 4.3, PBLUC_R_SQUARED 0.744, read-out: LUCIFERASE INFECTION ASSAY - IC50
  IC50: 0.8 µM
  IC90: 1.33 µM

## Cc1nc(SCC(=O)N(C)Cc2cnn(Cc3ccccc3)c2)c2c(C)c(C)sc2n1
[1]
  IC50: > 10 µM
  IC90: > 10 µM

## CCN1C/C(=C/c2ccc(NC(C)=O)cc2)C(=O)/C(=C/c2ccc(NC(C)=O)cc2)C1
[1]
  IC50: > 10 µM
  IC90: > 10 µM

## Cc1nnc(NC(=O)c2cn(-c3ccccc3)nc2-c2ccccc2C)o1
HEPG2TOX_HILL_SLOPE 0.258, HEPG2TOX_R_SQUARED 0.871, PBLUC_HILL_SLOPE 2.72, PBLUC_R_SQUARED 0.839, read-out: LUCIFERASE INFECTION ASSAY - IC50
  IC50: 0.114 µM
  IC90: 0.255 µM

## Cn1c(NCc2ccccc2F)nc2cnc(-c3ccc(Cl)cc3)cc21
[1]
  IC50: > 10 µM
  IC90: > 10 µM

## CCNc1nc(CN2CCCCC2)nc2scc(-c3ccccc3)c12
PBLUC_HILL_SLOPE 4.71, PBLUC_R_SQUARED 0.781, read-out: LUCIFERASE INFECTION ASSAY - IC50
  IC50: 3.21 µM
  IC90: 5.12 µM

## O=C(NC1CC1)c1ccc(-c2cnc3c(NCc4ccc5c(c4)OCO5)nccn23)cc1
HEPG2TOX_HILL_SLOPE 2.15, HEPG2TOX_R_SQUARED 0.624, PBLUC_HILL_SLOPE 12.5, PBLUC_R_SQUARED 0.564, read-out: LUCIFERASE INFECTION ASSAY - IC50
  IC50: 2.51 µM
  IC90: 2.99 µM

## CCn1c2ccccc2c2cc(CNCCNC(=O)c3nonc3N)ccc21
[1]
  IC50: > 8.72 µM
  IC90: > 8.72 µM

## CCN(CC)S(=O)(=O)c1ccc(OC(C)C)c(NC(=O)C2=CN3CCS(=O)(=O)N=C3C=C2)c1
PBLUC_HILL_SLOPE 11.8, PBLUC_R_SQUARED 0.349, read-out: LUCIFERASE INFECTION ASSAY - IC50
  IC50: 3.75 µM
  IC90: 4.52 µM

## NS(=O)(=O)c1ccc(CNC(=O)Cn2cnc3ccccc3c2=O)cc1
PBLUC_HILL_SLOPE 11.1, PBLUC_R_SQUARED 0.12, read-out: LUCIFERASE INFECTION ASSAY - IC50
  IC50: > 8.86 µM
  IC90: > 8.86 µM

## Cc1cc(C)c(C)c(S)c1C
[1]
  IC50: > 10 µM
  IC90: > 10 µM

## COc1ccc(-c2cnc3cnc(-c4ccc(N5CCN(C)CC5)nc4)cn23)cc1
PBLUC_HILL_SLOPE 3.44, PBLUC_R_SQUARED 0.167, read-out: LUCIFERASE INFECTION ASSAY - IC50
  IC50: 6.29 µM
  IC90: > 8.24 µM

## Cc1nc(Nc2ccc(Cl)cc2)sc1C(=O)Nc1ccccc1
[1]
  IC50: > 10 µM
  IC90: > 10 µM

## Cn1c(-c2cncc(C#Cc3ccccc3)c2)n[nH]c1=S
[1]
  IC50: > 11.3 µM
  IC90: > 11.3 µM

## CCOc1ccc(NC(=O)CCOc2cccc(C)c2)cc1
[1]
  IC50: > 11 µM
  IC90: > 11 µM

## O=C1C=C(c2ccccc2)C(=O)N1Nc1ccc(Cl)cc1Cl
HEPG2TOX_HILL_SLOPE 5.8, HEPG2TOX_R_SQUARED 0.44, PBLUC_HILL_SLOPE 7.31, PBLUC_R_SQUARED 0.6, read-out: LUCIFERASE INFECTION ASSAY - IC50
  IC50: 9.05 µM
  IC90: > 9.9 µM

## CC(C)c1ccc(-n2c(SCc3ccc([N+](=O)[O-])cc3)nnc2-c2ccc(C(C)(C)C)cc2)cc1
[1]
  IC50: > 6.78 µM
  IC90: > 6.78 µM

## CC(NC(=S)Nc1ccc(Oc2ccc(Cl)cc2)cc1)c1ccccc1 (stereo not given)
[1]
  IC50: 7.1 µM
  IC90: > 8.62 µM

## CC1Cc2ccccc2N1C(=O)COC(=O)c1ccc([N+](=O)[O-])cc1 (stereo not given)
[1]
  IC50: > 10 µM
  IC90: > 10 µM

## CCC(C)NC(=O)c1c(NC(=O)c2cccc(C(F)(F)F)c2)nc2ccc(C)cn12 (stereo not given)
PBLUC_HILL_SLOPE 12.7, PBLUC_R_SQUARED 0.269, read-out: LUCIFERASE INFECTION ASSAY - IC50
  IC50: 2.52 µM
  IC90: 2.99 µM

## O=C(Cn1cnc2scc(-c3ccccc3)c2c1=O)Nc1ccc([N+](=O)[O-])cc1
[1]
  IC50: > 10 µM
  IC90: > 10 µM

## O=C(CN1CSCC1=O)Nc1nc2ccccc2[nH]1
[1]
  IC50: > 10 µM
  IC90: > 10 µM

## CC1CCc2c(sc3nc(CN4CCOCC4)nc(N4CCN(S(=O)(=O)/C=C/c5ccccc5)CC4)c23)C1 (stereo not given)
[1]
  IC50: > 10 µM
  IC90: > 10 µM

## O=C(Nc1cccc(Cl)c1)c1csc(C(O)C2CCCCC2)n1 (stereo not given)
[1]
  IC50: > 10 µM
  IC90: > 10 µM
